Inconclusive results and toxic doses are left out. How the source made its calls: active means survival T/C of 150% or more; inactive means T/C below 125% in these data.
System: CD2F1 mice, L1210 leukemia ip, survival T/C
Assay: NCI In Vivo Anticancer Drug Screen. Data for tumor model L1210 Leukemia (intraperitoneal) in CD2F1 (CDF1) mice
Settings: higher = longer survival
Outline: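 Vehicle-treated tumor-bearing mice served as controls (C) for compound-treated mice (T). Reported figure is T divided by C.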

[1] = endpoint: mean survival time, dose: 100.0 mg/kg/injection, schedule: Q04DX003 (ip), vehicle: Klucel (hydroxypropylcellulose) (HPC)
[2] = endpoint: mean survival time, dose: 200.0 mg/kg/injection, schedule: Q04DX003 (ip), vehicle: Klucel (hydroxypropylcellulose) (HPC)
[3] = endpoint: mean survival time, dose: 50.0 mg/kg/injection, schedule: Q01DX009 (ip), vehicle: saline with Tween-80
[4] = endpoint: mean survival time, dose: 100.0 mg/kg/injection, schedule: Q04DX002 (ip), vehicle: saline with Tween-80
[5] = endpoint: mean survival time, dose: 200.0 mg/kg/injection, schedule: Q04DX002 (ip), vehicle: saline with Tween-80
[6] = endpoint: mean survival time, dose: 400.0 mg/kg/injection, schedule: Q04DX002 (ip), vehicle: saline with Tween-80
[7] = endpoint: mean survival time, dose: 100.0 mg/kg/injection, schedule: Q01DX009 (ip), vehicle: saline with Tween-80
[8] = endpoint: mean survival time, dose: 200.0 mg/kg/injection, schedule: Q01DX009 (ip), vehicle: saline with Tween-80
[9] = endpoint: mean survival time, dose: 400.0 mg/kg/injection, schedule: Q01DX009 (ip), vehicle: saline with Tween-80
[10] = endpoint: mean survival time, dose: 100.0 mg/kg/injection, schedule: Q04DX003 (ip), vehicle: saline with Tween-80
[11] = endpoint: mean survival time, dose: 200.0 mg/kg/injection, schedule: Q04DX003 (ip), vehicle: saline with Tween-80
[12] = endpoint: mean survival time, dose: 25.0 mg/kg/injection, schedule: Q01DX009 (ip), vehicle: saline with Tween-80
[13] = endpoint: mean survival time, dose: 400.0 mg/kg/injection, schedule: Q04DX003 (ip), vehicle: saline with Tween-80
[14] = endpoint: mean survival time, dose: 100.0 mg/kg/injection, schedule: Q04DX003 (ip), vehicle: saline
[15] = endpoint: mean survival time, dose: 200.0 mg/kg/injection, schedule: Q04DX003 (ip), vehicle: saline
[16] = endpoint: mean survival time, dose: 12.5 mg/kg/injection, schedule: Q01DX005 (ip), vehicle: water
[17] = endpoint: mean survival time, dose: 25.0 mg/kg/injection, schedule: Q01DX005 (ip), vehicle: water
[18] = endpoint: mean survival time, dose: 50.0 mg/kg/injection, schedule: Q01DX005 (ip), vehicle: water
[19] = endpoint: mean survival time, dose: 100.0 mg/kg/injection, schedule: Q01DX005 (ip), vehicle: water
[20] = endpoint: mean survival time, dose: 200.0 mg/kg/injection, schedule: Q01DX005 (ip), vehicle: water

Measured: T/C

O=C1C=C(Cl)C(=O)N1c1cccc(Cl)c1
inactive: endpoint: mean survival time, dose: 6.25 mg/kg/injection, schedule: Q04DX003 (ip), vehicle: saline with Tween-80 104 % of control | endpoint: mean survival time, dose: 12.5 mg/kg/injection, schedule: Q04DX003 (ip), vehicle: saline with Tween-80 95 % of control | endpoint: mean survival time, dose: 25.0 mg/kg/injection, schedule: Q04DX003 (ip), vehicle: saline with Tween-80 95 % of control

CCCCCCCCCCCC(=O)[O][Sn]([CH2]CCC)([CH2]CCC)[O]C(=O)CCCCCCCCCCC
inactive: endpoint: mean survival time, dose: 3.0 mg/kg/injection, schedule: Q04DX003 (ip), vehicle: saline with Tween-80 100 % of control | endpoint: mean survival time, dose: 6.0 mg/kg/injection, schedule: Q04DX003 (ip), vehicle: saline with Tween-80 103 % of control | endpoint: mean survival time, dose: 12.0 mg/kg/injection, schedule: Q04DX003 (ip), vehicle: saline with Tween-80 103 % of control

C#CCOC(=O)NCCC
inactive: [1] 96 % of control | [2] 100 % of control

C=C(Br)CNC(=O)OCCCC
inactive: [3] 88 % of control

CCCCCC1C(O)C(=O)OC1(C(F)(F)F)C(F)(F)F (configuration not stated)
inactive: [1] 91 % of control | [2] 94 % of control | endpoint: mean survival time, dose: 400.0 mg/kg/injection, schedule: Q04DX003 (ip), vehicle: Klucel (hydroxypropylcellulose) (HPC) 96 % of control

Cc1cc(C)nc(NC(=S)N/N=C/c2ccc(O)cn2)n1
inactive: [4] 87 % of control | [5] 91 % of control | [6] 91 % of control

CC(C)(C)OOC(=O)c1ccc([N+](=O)[O-])cc1
inactive: [7] 101 % of control | [8] 97 % of control | [9] 101 % of control

O=c1cn[nH]c2ccc(Br)cc12
inactive: endpoint: mean survival time, dose: 100.0 mg/kg/injection, schedule: Q01DX001 (ip), vehicle: other 97 % of control | endpoint: mean survival time, dose: 200.0 mg/kg/injection, schedule: Q01DX001 (ip), vehicle: other 102 % of control | endpoint: mean survival time, dose: 400.0 mg/kg/injection, schedule: Q01DX001 (ip), vehicle: other 91 % of control

CC(=O)N(C(C)=O)c1ccc2c3c(cccc13)CC2
inactive: endpoint: mean survival time, dose: 50.0 mg/kg/injection, schedule: Q04DX003 (ip), vehicle: saline with Tween-80 110 % of control | [10] 104 % of control | [11] 101 % of control

CC(C)c1ccc(/C=C2/CCCCC2=O)cc1
inactive: [12] 93 % of control | [3] 97 % of control | [7] 97 % of control

COC(=O)c1cocc1C(=O)OC
inactive: [4] 95 % of control | [5] 91 % of control | [6] 95 % of control

CCOc1ccc(-c2nnc(Nc3ccc(S(=O)(=O)N4CCCCC4)cc3)s2)cc1
inactive: [12] 95 % of control | [3] 90 % of control | [7] 86 % of control

Cc1cc2c3ccccc3nc(C(F)(F)F)n2n1
inactive: endpoint: mean survival time, dose: 100.0 mg/kg/injection, schedule: Q04DX003 (ip), vehicle: saline sonified 96 % of control | endpoint: mean survival time, dose: 200.0 mg/kg/injection, schedule: Q04DX003 (ip), vehicle: saline sonified 100 % of control | endpoint: mean survival time, dose: 400.0 mg/kg/injection, schedule: Q04DX003 (ip), vehicle: saline sonified 100 % of control

CC(C)CCCCCc1ccc(OCCOc2ccc(C(=O)Nc3ccc(S(=O)(=O)F)cc3[N+](=O)[O-])cc2)cc1
inactive: endpoint: mean survival time, dose: 100.0 mg/kg/injection, schedule: Q01DX009 (ip), vehicle: Klucel (hydroxypropylcellulose) (HPC) 91 % of control | endpoint: mean survival time, dose: 200.0 mg/kg/injection, schedule: Q01DX009 (ip), vehicle: Klucel (hydroxypropylcellulose) (HPC) 92 % of control | endpoint: mean survival time, dose: 400.0 mg/kg/injection, schedule: Q01DX009 (ip), vehicle: Klucel (hydroxypropylcellulose) (HPC) 87 % of control

CC(=O)N(C)N=Nc1ccc(F)cc1
inactive: endpoint: mean survival time, dose: 25.0 mg/kg/injection, schedule: Q04DX003 (ip), vehicle: Klucel (hydroxypropylcellulose) (HPC) 105 % of control | endpoint: mean survival time, dose: 50.0 mg/kg/injection, schedule: Q04DX003 (ip), vehicle: Klucel (hydroxypropylcellulose) (HPC) 102 % of control | [1] 105 % of control | [2] 105 % of control

CCOc1cc(/C=N/NC(=O)C[n+]2ccccc2)ccc1O
inactive: [12] 99 % of control | [3] 103 % of control | [7] 99 % of control

O=C(/C=C/c1ccco1)c1ccc2ccccc2c1
inactive: endpoint: mean survival time, dose: 100.0 mg/kg/injection, schedule: Q01DX001 (ip), vehicle: saline 102 % of control | endpoint: mean survival time, dose: 200.0 mg/kg/injection, schedule: Q01DX001 (ip), vehicle: saline 94 % of control | endpoint: mean survival time, dose: 400.0 mg/kg/injection, schedule: Q01DX001 (ip), vehicle: saline 94 % of control

CC1CCOC(C(C)C)O1 (configuration not stated)
inactive: endpoint: mean survival time, dose: 50.0 mg/kg/injection, schedule: Q04DX002 (ip), vehicle: saline 96 % of control | endpoint: mean survival time, dose: 100.0 mg/kg/injection, schedule: Q04DX002 (ip), vehicle: saline 96 % of control | endpoint: mean survival time, dose: 200.0 mg/kg/injection, schedule: Q04DX002 (ip), vehicle: saline 92 % of control

Cc1c(Cl)cccc1NS(=O)(=O)c1ccccc1
inactive: [7] 108 % of control | [10] 92 % of control | [8] 103 % of control | [11] 99 % of control | [9] 103 % of control | [13] 99 % of control

CC1CC(C)(C)N=C(C(Cc2ccccc2)Cc2ccccc2)O1 (configuration not stated)
inactive: endpoint: mean survival time, dose: 100.0 mg/kg/injection, schedule: Q01DX001 (ip), vehicle: saline with Tween-80 97 % of control | endpoint: mean survival time, dose: 200.0 mg/kg/injection, schedule: Q01DX001 (ip), vehicle: saline with Tween-80 95 % of control

C1Cn2nnnc2N1
inactive: [14] 103 % of control | [15] 103 % of control | endpoint: mean survival time, dose: 400.0 mg/kg/injection, schedule: Q04DX003 (ip), vehicle: saline 94 % of control

O=C(/C=C/c1ccc(OCc2ccccc2)c(OCc2ccccc2)c1)OCc1ccccc1
inactive: endpoint: mean survival time, dose: 25.0 mg/kg/injection, schedule: Q04DX002 (ip), vehicle: saline with Tween-80 102 % of control | endpoint: mean survival time, dose: 50.0 mg/kg/injection, schedule: Q04DX002 (ip), vehicle: saline with Tween-80 91 % of control | [4] 95 % of control | [5] 95 % of control

Cc1cn(C2CC3OP(=O)(N(C)C)OCC3O2)c(=O)[nH]c1=O (configuration not stated)
inactive: [16] 105 % of control | [17] 100 % of control | [18] 109 % of control | [19] 97 % of control | [20] 103 % of control

O=C(O)c1ccc(CCCBr)cc1
inactive: endpoint: mean survival time, dose: 100.0 mg/kg/injection, schedule: Q04DX003 (ip), vehicle: other 107 % of control | endpoint: mean survival time, dose: 200.0 mg/kg/injection, schedule: Q04DX003 (ip), vehicle: other 106 % of control | endpoint: mean survival time, dose: 400.0 mg/kg/injection, schedule: Q04DX003 (ip), vehicle: other 101 % of control

Nc1cc(=O)c2nnn(C3OC(CO)C(O)C3O)c2[nH]1 (configuration not stated)
inactive: [16] 102 % of control | [17] 98 % of control | [18] 94 % of control | [19] 87 % of control | [20] 105 % of control | endpoint: mean survival time, dose: 400.0 mg/kg/injection, schedule: Q01DX005 (ip), vehicle: water 90 % of control

CCC(=O)Sc1ccccc1C(=O)Nc1ccc(Cl)cc1
inactive: endpoint: median survival time, dose: 25.0 mg/kg/injection, schedule: Q01DX009 (ip), vehicle: saline with Tween-80 112 % of control | endpoint: median survival time, dose: 50.0 mg/kg/injection, schedule: Q01DX009 (ip), vehicle: saline with Tween-80 111 % of control | endpoint: median survival time, dose: 100.0 mg/kg/injection, schedule: Q01DX009 (ip), vehicle: saline with Tween-80 107 % of control | endpoint: median survival time, dose: 200.0 mg/kg/injection, schedule: Q01DX009 (ip), vehicle: saline with Tween-80 112 % of control | endpoint: median survival time, dose: 400.0 mg/kg/injection, schedule: Q01DX009 (ip), vehicle: saline with Tween-80 86 % of control

COc1ccc(N2C(=O)CSC2=S)cc1
inactive: [10] 102 % of control | [11] 96 % of control | [13] 102 % of control

CCCCC(CC)COP(=O)(CC(CC)CCCC)OCC(CC)CCCC (configuration not stated)
inactive: [14] 86 % of control | [15] 94 % of control

NC(=O)/C=C/C1=NCCC1
inactive: endpoint: mean survival time, dose: 7.5 mg/kg/injection, schedule: Q04DX003 (ip), vehicle: saline with Tween-80 97 % of control | endpoint: mean survival time, dose: 15.0 mg/kg/injection, schedule: Q04DX003 (ip), vehicle: saline with Tween-80 97 % of control | endpoint: mean survival time, dose: 30.0 mg/kg/injection, schedule: Q04DX003 (ip), vehicle: saline with Tween-80 102 % of control | [7] 100 % of control | [8] 103 % of control | [9] 103 % of control

Reference: PubChem BioAssay AID256 (DTP/NCI, 2004)
